Measurements reported in patent US20250114313A1, “OLIGO-BENZAMIDE ANALOGS AND THEIR USE IN CANCER TREATMENT” (BOARD OF REGENTS, THE UNIVERSITY OF TEXAS SYSTEM, priority 2022, published 2025).

What was measured:
TNBC cells = assay: Ca^2+ flux in TNBC cells; format: cell-based; details: data not shown
TNBC cells (MDA-MB-231) = assay: Transmission electron microscopy of ER; format: cell-based, Human; details: 1 μM, within 4 h
Protocol: Transmission Electron Microscopy: DMSO or ERX-41 treated cells were fixed with 2.5% glutaraldehyde (Electron Microscopy Sciences) in 0.1 M sodium cacodylate pH7.4 buffer (Electron Microscopy Sciences) for 20 min at room temperature. After rinsing with 0.1 M sodium cacodylate pH7.4 buffer, cells were further fixed with 1% Osmium with 0.8% K3Fe(CN6) in 0.1 M sodium cacodylate pH7.4 buffer. After pre-staining with 4% uranyl acetate in 50% ethanol, cells were dehydrated with series concentrations of ethanol (from 50% to 100%). After transitioning from propylene oxide to resin and embedding in Embed 812 resin (Electron Microscopy Sciences), cells were located using light microscopy and trimmed out. 60-70 nm-thin sections were cut, mounted on formvar-coated grids, and viewed by a transmission electron microscope (Tecnai G2 spirit; FEI) equipped with a LaB6 source using a voltage of 120 kV.

[1] = test system: SUM-159 LIPA KO xenografts; assay: SUM-159 LIPA KO xenografts; format: in vivo, SCID mice; details: i.p., 10 mg/kg/day
Protocol: Knockout studies: For xenograft knockout tumor models, 1.8×10^6SUM159 parental, or 1.8×10^6SUM159-LIPA KO cells were harvested with 1% trypsin-EDTA, washed and resuspended in sterile PBS. Cells were initially implanted into the mammary fat pads of six-week-old female C.B-17 (SCID) mice purchased from Envigo (Indianapolis, IN, USA). Mice were monitored twice weekly for tumor growth measured by Vernier calipers where tumor volume was calculated by the formula (length×width^2)/2. Tumors were dissected into 2 mm cubes when they reached 800 mm^3 in size and subsequently implanted into the mammary fat pad of twelve SCID female mice. Once tumor fragments reached 150 mm^3 in size, mice were randomly divided into vehicle group (n=6, control, 0.3% Hydroxy cellulose, i.p.) and treatment group (n=6, ERX-41, 10 mg/kg/day/i.p.). Institutional guidelines were followed to determine experimental end points.

[2] = test system: HSPA5, DDIT3, sXBP1 mRNA in TNBC cells; assay: RT-qPCR of ER stress / UPR genes, TNBC cells; format: cell-based, Human
Protocol: Real-time quantitative PCR (RT-qPCR): Total RNA was prepared from breast cancer cells using the RNeasy Mini Kit (Qiagen) according to the manufacturer protocols. Subsequently, total RNAs were reverse transcribed into cDNA using iScript Reverse Transcription Supermix (Bio-rad) and by using SYBR Green on an Illumina Real-Time PCR system.

CC(C)COc1cc(C(=O)Nc2ccc(C(=O)N[C@H]3CC[C@H](C)CC3)cc2OCC(C)C)ccc1NC(=O)c1ccc([N+](=O)[O-])c(OCCO)c1 [ERX-41] was tested, and the “Ca^2+ flux within TNBC cells” value (TNBC cells) was “not able to induce Ca^2+ flux”, the “ER morphology by TEM” value (TNBC cells (MDA-MB-231)) was “dramatic dilation of the ER” and the “response of LIPA KO xenografts” value [1] was “did not respond”. For the same compound, the “upregulation of HSPA5, DDIT3, sXBP1 mRNA” value ([2]; 1 μM, TNBC cells) was 60-80 fold and the “expression of sXBP1 and DDIT3, parental SUM-159” value ([2]; RT-qPCR, parental SUM-159 cells) was “induces expression of UPR genes sXBP1 and DDIT3”.
